This note sets out measurements from patent publication US20230286958A1, “PLASMA KALLIKREIN INHIBITORS” (Merck Sharp & Dohme LLC, priority 2020, published 2023).

For orientation: IC50 means the midpoint of a concentration-inhibition curve. Read a high IC50 as a need for much substance.

One assay concerns the target human Factor XIa (Homo sapiens (Human), UniProt P03951). Put plainly: Factor XIa Assay (fluorogenic substrate GPR-AFC). It counts as biochemical. Particulars: Factor XIa (FXIa).
In a further assay the target is Human plasma kallikrein (Homo sapiens (Human), UniProt P03952). Nature of the assay: Kallikrein Assay (fluorogenic substrate Acetyl-K-P-R-AFC). Type of assay: biochemical. To be noted: Plasma Kallikrein (PKal). The gist of the method: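 Ki is derived from IC50 with the Cheng-Prusoff equation, and IC50 from the inflection point of a four-parameter logistic curve. The rate of AFC release is read with 0.5 nM purified enzyme and […] substrate at room temperature or 37 °C.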
Human plasma kallikrein, sequence (P03952 391-638): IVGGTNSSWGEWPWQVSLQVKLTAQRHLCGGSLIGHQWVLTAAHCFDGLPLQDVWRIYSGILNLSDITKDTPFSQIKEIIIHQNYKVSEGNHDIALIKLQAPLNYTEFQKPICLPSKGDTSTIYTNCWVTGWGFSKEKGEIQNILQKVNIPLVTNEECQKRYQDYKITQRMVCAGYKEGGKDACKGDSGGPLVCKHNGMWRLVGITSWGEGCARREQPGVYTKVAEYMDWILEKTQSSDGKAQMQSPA
Human plasma kallikrein, sequence (P03952 20-390 partner): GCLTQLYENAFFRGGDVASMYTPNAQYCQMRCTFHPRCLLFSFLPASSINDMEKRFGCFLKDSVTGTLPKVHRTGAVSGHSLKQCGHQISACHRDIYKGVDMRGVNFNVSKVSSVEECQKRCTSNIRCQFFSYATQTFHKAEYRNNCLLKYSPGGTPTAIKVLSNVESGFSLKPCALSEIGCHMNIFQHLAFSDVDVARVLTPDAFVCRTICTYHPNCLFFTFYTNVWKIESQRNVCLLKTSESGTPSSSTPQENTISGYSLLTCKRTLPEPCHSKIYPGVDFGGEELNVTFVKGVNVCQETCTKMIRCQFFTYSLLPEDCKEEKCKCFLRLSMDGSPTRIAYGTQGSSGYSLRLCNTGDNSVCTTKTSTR

human Factor XIa, sequence (P03951 388-625 limits assumed): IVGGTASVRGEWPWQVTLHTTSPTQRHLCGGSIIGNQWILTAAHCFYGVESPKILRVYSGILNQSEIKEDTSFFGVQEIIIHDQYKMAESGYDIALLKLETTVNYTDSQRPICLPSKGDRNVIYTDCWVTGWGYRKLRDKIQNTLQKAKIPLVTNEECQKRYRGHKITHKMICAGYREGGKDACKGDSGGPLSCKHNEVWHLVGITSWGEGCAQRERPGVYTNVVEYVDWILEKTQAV
human Factor XIa, sequence (P03951 19-387 partner limits assumed): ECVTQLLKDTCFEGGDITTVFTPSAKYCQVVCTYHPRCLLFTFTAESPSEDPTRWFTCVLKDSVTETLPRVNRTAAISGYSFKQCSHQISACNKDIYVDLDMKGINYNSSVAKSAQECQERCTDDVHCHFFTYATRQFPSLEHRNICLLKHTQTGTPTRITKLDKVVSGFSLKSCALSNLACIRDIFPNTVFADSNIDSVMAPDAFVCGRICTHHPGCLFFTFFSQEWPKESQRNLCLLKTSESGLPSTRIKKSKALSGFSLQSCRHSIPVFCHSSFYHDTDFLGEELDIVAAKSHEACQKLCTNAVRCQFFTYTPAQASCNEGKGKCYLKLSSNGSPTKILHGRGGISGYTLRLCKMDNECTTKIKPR

In the case of `Cc1ncc(-c2c(C(F)F)ccc(Cl)c2F)nc1C(=O)Nc1cnn([C@H](C)c2cnc(N3C[C@H]4C[C@H]4C3=O)c(O)c2)c1` [Example 216, 6-(3-Chloro-6-(difluoromethyl)-2-fluorophenyl)-N-(1-((R)-1-(5-hydroxy-6-((1R,5S)-2-oxo-3-azabicyclo[3.1.0]hexan-3-yl)pyridin-3-yl)ethyl)-1H-pyrazol-4-yl)-3-methylpyrazine-2-carboxamide], the IC50 is 8.42 µM against human Factor XIa and 0.0028 µM against Human plasma kallikrein.
Regarding `CC(c1cnc(N2C[C@H]3C[C@H]3C2=O)c(C(F)F)c1)n1cc(NC(=O)c2cncc(-c3c(C(F)F)ccc(Cl)c3F)n2)cn1` (single isomer, unassigned) [Example 78, 6-(3-Chloro-6-(difluoromethyl)-2-fluorophenyl)-N-(1-((R or S)-1-(5-(difluoromethyl)-6-((1R,5S)-2-oxo-3-azabicyclo[3.1.0]hexan-3-yl)pyridin-3-yl)ethyl)-1H-pyrazol-4-yl)pyrazine-2-carboxamide], the IC50 was above 10 µM against human Factor XIa and 0.0027 µM at Human plasma kallikrein.
For `Cc1nc(C(C)n2cc(NC(=O)c3cncc(-c4c(C(F)F)ccc(Cl)c4F)n3)cn2)ccc1N1C[C@H]2C[C@H]2C1=O` (single isomer, unassigned) [Example 61, 6-(3-Chloro-6-(difluoromethyl)-2-fluorophenyl)-N-(1-((R or S)-1-(6-methyl-5-((1R,5S)-2-oxo-3-azabicyclo[3.1.0]hexan-3-yl)pyridin-2-yl)ethyl)-1H-pyrazol-4-yl)pyrazine-2-carboxamide] the same measures were above 10 µM and 0.0007 µM.
The matching figures for `Cc1ncc(-c2c(C(F)F)ccc(Cl)c2F)nc1C(=O)Nc1cnn(C(C)c2cnc(N3C[C@H]4C[C@H]4C3=O)c(Cl)c2)c1` (stereo partly drawn) [Example 91, N-(1-((S)-1-(5-chloro-6-((1R,5S)-2-oxo-3-azabicyclo[3.1.0]hexan-3-yl)pyridin-3-yl)ethyl)-1H-pyrazol-4-yl)-6-(3-chloro-6-(difluoromethyl)-2-fluorophenyl)-3-methylpyrazine-2-carboxamide]: 2.58 µM and 0.0013 µM.
For `Cc1nc(C(C)n2cc(NC(=O)c3cncc(-c4c(C(F)F)ccc(Cl)c4F)n3)cn2)ncc1N1C[C@H]2C[C@H]2C1=O` (single isomer, unassigned) [Example 3, 6-(3-Chloro-6-(difluoromethyl)-2-fluorophenyl)-N-(1-((S or R)-1-(4-methyl-5-((1R,5S)-2-oxo-3-azabicyclo[3.1.0]hexan-3-yl)pyrimidin-2-yl)ethyl)-1H-pyrazol-4-yl)pyrazine-2-carboxamide] the same measures were above 10 µM and 0.001 µM.
In the case of `Cc1cc(C(C)n2cc(NC(=O)c3nc(-c4c(OC(F)F)ccc(Cl)c4F)cnc3C)cn2)cnc1N1C[C@H]2C[C@H]2C1=O` (single isomer, unassigned) [Example 132, 6-(3-Chloro-6-(difluoromethoxy)-2-fluorophenyl)-3-methyl-N-(1-((R or S)-1-(5-methyl-6-((1R,5S)-2-oxo-3-azabicyclo[3.1.0]hexan-3-yl)pyridin-3-yl)ethyl)-1H-pyrazol-4-yl)pyrazine-2-carboxamide], the IC50 on human Factor XIa turned out to be 0.139 µM; against Human plasma kallikrein, 0.0006 µM.
For `O=C(Nc1cnn(Cc2cnc(N3C[C@H]4C[C@H]4C3=O)nc2)c1)c1nc(-c2c(C(F)F)ccc(Cl)c2F)cnc1COC1CC1` [Example 116, 6-(3-Chloro-6-(difluoromethyl)-2-fluorophenyl)-3-(cyclopropoxymethyl)-N-(1-((2-((1R,5S)-2-oxo-3-azabicyclo[3.1.0]hexan-3-yl)pyrimidin-5-yl)methyl)-1H-pyrazol-4-yl)pyrazine-2-carboxamide] the same measures were 4.38 µM and 0.0191 µM.
For `CC(c1ccc(N2C[C@H]3C[C@H]3C2=O)nc1)n1cc(NC(=O)c2cncc(-c3c(C#N)ccc(Cl)c3F)n2)cn1` (single isomer, unassigned) [Example 89, 6-(3-Chloro-6-cyano-2-fluorophenyl)-N-(1-((S or R)-1-(6-((1R,5S)-2-oxo-3-azabicyclo[3.1.0]hexan-3-yl)pyridin-3-yl)ethyl)-1H-pyrazol-4-yl)pyrazine-2-carboxamide] the same measures were above 10 µM and 0.0313 µM.
`C[C@H](c1cnc(N2C[C@H]3C[C@H]3C2=O)nc1N)n1cc(NC(=O)c2cncc(-c3c(C(F)F)ccc(Cl)c3F)n2)cn1` [Example 170, N-(1-((R)-1-(4-Amino-2-((1R,5S)-2-oxo-3-azabicvclo[3.1.0]hexan-3-yl)pyrimidin-5-yl)ethyl)-1H-pyrazol-4-yl)-6-(3-chloro-6-(difluoromethyl)-2-fluorophenyl)pyrazine-2-carboxamide]: the IC50 was above 10 µM against human Factor XIa and 0.0207 µM against Human plasma kallikrein.
The matching figures for `Cc1cc(C(C)n2cc(NC(=O)c3nc(-c4c(C(F)F)ccc(Cl)c4F)cnc3C(C)O)cn2)nnc1N1C[C@H]2C[C@H]2C1=O` (single isomer, unassigned) [Example 231, 6-(3-Chloro-6-(difluoromethyl)-2-fluorophenyl)-3-((R or S)-1-hydroxyethyl)-N-(1-((R or S)-1-(5-methyl-6-((1R,5S)-2-oxo-3-azabicyclo[3.1.0]hexan-3-yl)pyridazin-3-yl)ethyl)-1H-pyrazol-4-yl)pyrazine-2-carboxamide]: 0.903 µM and 0.005 µM.
With `[2H]C([2H])(O)c1ncc(-c2c(C(F)F)ccc(Cl)c2F)nc1C(=O)Nc1cnn([C@@H](C)c2cnc(N3C[C@H]4C[C@H]4C3=O)nc2)c1` [Example 182, 6-(3-Chloro-6-(difluoromethyl)-2-fluorophenyl)-3-(hydroxymethyl-d2)-N-(1-((S)-1-(2-((1R,5S)-2-oxo-3-azabicyclo[3.1.0]hexan-3-yl)pyrimidin-5-yl)ethyl)-1H-pyrazol-4-yl)pyrazine-2-carboxamide], the IC50 is 0.572 µM against human Factor XIa and 0.0007 µM at Human plasma kallikrein.
Take `CC(c1cnc(N2C[C@H]3C[C@H]3C2=O)cn1)n1cc(NC(=O)c2cncc(-c3c(C(F)F)ccc(Cl)c3F)n2)cn1` (single isomer, unassigned) [Example 20, 6-(3-Chloro-6-(difluoromethyl)-2-fluorophenyl)-N-(1-((S or R)-1-(5-((1R,5S)-2-oxo-3-azabicyclo[3.1.0]hexan-3-yl)pyrazin-2-yl)ethyl)-1H-pyrazol-4-yl)pyrazine-2-carboxamide]: the IC50 was above 10 µM against human Factor XIa and 0.0285 µM against Human plasma kallikrein.
`Cc1ncc(-c2c(C(F)F)ccc(Cl)c2F)nc1C(=O)Nc1cnn(C(C)c2cnc(N3C[C@H]4C[C@H]4C3=O)c(F)c2C)c1` (single isomer, unassigned) [Example 127, 6-(3-Chloro-6-(difluoromethyl)-2-fluorophenyl)-N-(1-((S or i)-1-(5-fluoro-4-methyl-6-((1R,5S)-2-oxo-3-azabicyclo[3.1.0]hexan-3-yl)pyridin-3-yl)ethyl)-1H-pyrazol-4-yl)-3-methylpyrazine-2-carboxamide]: the IC50 amounted to 0.596 µM against human Factor XIa and 0.0005 µM at Human plasma kallikrein.
For `Cc1cc(Cn2cc(NC(=O)c3nc(-c4c(OC(F)F)ccc(Cl)c4F)cnc3C)cn2)nnc1N1C[C@H]2C[C@H]2C1=O` [Example 113, 6-(3-Chloro-6-(difluoromethoxy)-2-fluorophenyl)-3-methyl-N-(1-((5-methyl-6-((1R,SS)-2-oxo-3-azabicyclo[3.1.0]hexan-3-yl)pyridazin-3-yl)methyl)-1H-pyrazol-4-yl)pyrazine-2-carboxamide] the same measures were 0.114 µM and 0.0021 µM.
For `C[C@@H](c1cnc(N2C[C@H]3C[C@H]3C2=O)nc1)n1cc(NC(=O)c2nc(-c3c(C(F)F)ccc(Cl)c3F)cnc2C(O)C(F)(F)F)cn1` (single isomer, unassigned) [Example 177, 6-(3-Chloro-6-(difluoromethyl)-2-fluorophenyl)-N-(1-((S)-1-(2-((1R,5S)-2-oxo-3-azabicyclo[3.1.0]hexan-3-yl)pyrimidin-5-yl)ethyl)-1H-pyrazol-4-yl)-3-((R or S)-2,2,2-trifluoro-1-hydroxyethyl)pyrazine-2-carboxamide] the same measures were above 10 µM and 0.0478 µM.
Turning to `CC(O)c1ncc(-c2c(C(F)F)ccc(Cl)c2F)nc1C(=O)Nc1cnn(Cc2cnc(N3C[C@H]4C[C@H]4C3=O)c3c2OCO3)c1` (single isomer, unassigned) [Example 254, 6-(3-Chloro-6-(difluoromethyl)-2-fluorophenyl)-3-((R or S)-1-hydroxyethyl)-N-(1-((4-((1R,5S)-2-oxo-3-azabicyclo[3.1.0]hexan-3-yl)-[1,3]dioxolo[4,5-c]pyridin-7-yl)methyl)-1H-pyrazol-4-yl)pyrazine-2-carboxamide], the IC50 against human Factor XIa was found to be 0.157 µM; against Human plasma kallikrein it was 0.0014 µM.
For `Cc1c(C(CO)n2cc(NC(=O)c3cncc(-c4c(C(F)F)ccc(Cl)c4F)n3)cn2)cnc(N2C[C@H]3C[C@H]3C2=O)c1C` (single isomer, unassigned) [Example 168, 6-(3-Chloro-6-(difluoromethyl)-2-fluorophenyl)-N-(1-((S or R)-1-(4,5-dimethyl-6-((1R,5S)-2-oxo-3-azabicyclo[3.1.0]hexan-3-yl)pyridin-3-yl)-2-hydroxyethyl)-1H-pyrazol-4-yl)pyrazine-2-carboxamide] the same measures were 0.261 µM and 0.0004 µM.
Consider `Cc1ncc(-c2c(C(F)F)ccc(Cl)c2F)nc1C(=O)Nc1cnn(C(CO)c2cnc(N3C[C@H]4C[C@H]4C3=O)nc2)c1` (single isomer, unassigned) [Example 165, 6-(3-Chloro-6-(difluoromethyl)-2-fluorophenyl)-N-(1-((S or R)-2-hydroxy-1-(2-((1R,5S)-2-oxo-3-azabicyclo[3.1.0]hexan-3-yl)pyrimidin-5-yl)ethyl)-1H-pyrazol-4-yl)-3-methylpyrazine-2-carboxamide], for which the IC50 against human Factor XIa was 2.05 µM; on Human plasma kallikrein, 0.0207 µM.
